Assay results reported in patent EP1685120B1, “COLOURING HYDROSOLUBLE YELLOW PREPARATION DERIVED FROM DIHYDROCHALCONES” (INSTITUT NATIONAL DE LA RECHERCHE AGRONOMIQUE, priority 2003, dated 2005).
Where “and” joins values, the source holds several entries; their conditions need not be identical. Equal entries are not always repeated. Where two headings read alike, the source gives them in different places.

Key:
[1] = DPPH method, antioxidant capacity in methanolic medium (after Brand-Williams et al., 1995); assay type: biochemical; conditions: for TEAC (Trolox équivalent antioxidant capacity): DPPH, relative to Trolox; for capacité antioxydante: overall conclusion in words from DPPH and FRAP
Description: (§1) Pour comparaison ou pour l'expression des résultats, les capacités antioxydantes des composés suivants ont été également mesurées : vitamine C (acide ascorbique), Trolox (analogue hydrosoluble de la vitamine E), (-)-épicatéchine, et phloridzine.
Les résultats sont présentés dans les tableaux II et III ci dessous.

[2] = values of Pulido et al. (2000); cited from earlier work
[3] = FRAP method (Ferric Reducing Antioxidant Power), aqueous medium, 10 min incubation (after Pulido et al., 2000); assay type: biochemical; conditions: for TEAC: FRAP, Trolox equivalent, (SD); for EC1: antioxidant concentration with reducing power equivalent to 1 mmol/L FeSO4 7 H2O, 10 min incubation, mean of 3 (SD)
Procedure: as §1
Tableau III - Mesure de la capacité antioxydante en milieu aqueux par la méthode FRAP pour 10 minutes d'incubation (d'après Pulido et al., 2000).

[4] = Colorimetric parameters CIE L*a*b* (Minolta CM-3600d spectrophotometer) in Mc Ilvaine buffer; assay type: physicochemical; set-up: key to L* : luminosité / a* : axe vert-rouge / b* : axe bleu-jaune: CIE L*a*b* coordinates (illuminant D65, 10° observer)
Description: Les paramètres de coloration du colorant par rapport à de l'eau distillée (référence) ont été mesurés en solution dans un tampon de M^c Ilvaine (citrate-phosphate) à différents pH (2,2 à 8) et ce, pour plusieurs concentrations.
Les mesures ont été réalisées à l'aide d'un spectrophotomètre Minolta CM-3600d (©1998 Minolta Co., Ltd. Japon) avec la plaque de calibration (Minolta n° 13171008). Le spectrophotomètre équipé d'un logiciel de retraitement SpectraMagic V 3.60G (Cyberchrome Inc Minolta Co. Ltd), a été paramétré pour utiliser l'espace colorimétrique CIE L*a*b (Figure 2), avec l'illuminant D65-10° (D65-A-F2), et l'observateur moyen normalisé 10° CIE 1964 (sensibilité d'un oeil moyen). A partir des valeurs a* et b* nous avons calculé les coordonnées polaires C* = sqrt(((a*))^2 + ((b*))^2) et h = tan g^-1 ((a*)/(b*)) × (180)/(Pi) [formula] Dans la suite du texte nous exploiterons principalement ces coordonnées polaires C* et h, car elles ont chacune une signification colorimétrique : C* est la distance au centre de l'espace et correspond à la saturation de la couleur alors que h est un angle (exprimé ici en degré) qui définit la teinte. A titre indicatif pour la couleur rouge la teinte se situe au voisinage de 0°, pour le jaune environ 90°, pour le vert 180° et pour le bleu 270°. La valeur L* est utilisée telle quelle et exprime la clarté.

[5] = tested on: cellules TC-7; assay: Cytotoxicity test, cell viability by neutral red method; assay type: cell-based; conditions: for % Témoin / DO Moyenne: 2 h; for % Témoin: cell viability; for DO Moyenne: mean of 5
Procedure: Cellules TC-7 (sous clone de caco-2) cultivées sur nacelles (membrane en polyéthylène téréphtalate), utilisées à 21 jours de confluence, fournie par Bioprédic International
Emploi des cellules au passage 21.
Pas de solvant utilisé pour la solubilisation des produits à l'essai.
Système réactionnel : cultures de cellules TC-7 incubées en présence des produits à l'essai aux différentes concentrations citées ci-dessus.
Temps d'incubation : 2 heures. [drawing 6] ↑ : incubation des produits à l'essai ? : évaluation des effets Replicate : 5 par concentrations. Température d'incubation : 37°C. Autres conditions : atmosphère humide contenant 5 % de CO2.
Témoin : correspondant aux cellules incubées en absence de produit à l'essai [drawing 8] Replicate : 10
Viabilité cellulaire mesurée selon la méthode du rouge neutre après incubation avec les produits à l'essai : • incubation en présence de rouge neutre pendant 3 heures • lyse des cellules et lecture de la densité optique avec un spectrophotomètre à 540 nm (la densité optique du rouge neutre est proportionnelle au nombre de cellules vivantes).
Expression des résultats : en unités arbitraires de D.O.(densité optique) par échantillon et en pourcentage de variation par rapport au groupe témoin.

[6] = Optical density at 420 nm of the esterification reaction medium (colouring capacity); assay type: physicochemical; conditions: unpurified POP fraction incubated with acidified alcohol, 50 °C, 1 h
Description: Le volume d'alcool est ajusté de façon à avoir une concentration finale en fraction POP de 1 g.L^-1. Les alcools suivants ont été testés : méthanol, propanol-1, propanol-2, butanol-1, butanol-3, hexanol-1, octanol-1.
Confirmation de la conversion en esters : la formation des esters correspondant a été montrée par HPLC couplée à la spectrométrie de masse en mode négatif et avec également en série une détection à 420 nm (jaune). […] Tableau I: Temps de rétention chromatographique, ions pseudo-moléculaires et rendements de conversion du composé de formule I-b-1 et de ses dérivés estérifiés.

[7] = Molar extinction coefficient (UV-visible); assay type: physicochemical
Description: Une solution à 20 ppm de ce composéest jaune intense.
Le spectre UV-visible d'une solution de préparation POP a été mesuré pour différents pH entre 2 et 8 (voir figure 1). Des mesures de couleur (chromamètre Minolta) ont également été réalisées dans cette zone de pH. Les résultats détaillés des paramètres colorimétriques sont consignés ci-après.

[8] = sign only; other natural yellow colourants, source not given; cited from earlier work
[9] = 5 mg/L, pH 3, tampon de Mc Ilvaine
[10] = 10 mg/L, pH 3, tampon de Mc Ilvaine
[11] = 20 mg/L, pH 3, tampon de Mc Ilvaine
[12] = 40 mg/L, pH 3, tampon de Mc Ilvaine
[13] = 100 mg/L, pH 3, tampon de Mc Ilvaine
[14] = pH 2,2, env. 20 mg/L, tampon de Mc Ilvaine
[15] = pH 3, env. 20 mg/L, tampon de Mc Ilvaine
[16] = pH 4, env. 20 mg/L, tampon de Mc Ilvaine
[17] = pH 5, env. 20 mg/L, tampon de Mc Ilvaine
[18] = pH 6, env. 20 mg/L, tampon de Mc Ilvaine
[19] = pH 7, env. 20 mg/L, tampon de Mc Ilvaine
[20] = pH 8, env. 20 mg/L, tampon de Mc Ilvaine

Oc1cc(O)c2c(c1)O[C@H](c1ccc(O)c(O)c1)[C@H](O)C2 [(-)-épicatéchine]
TEAC (Trolox équivalent antioxidant capacity) [1]: 1,12 | EC1 [2]: 348 | TEAC [3]: 1.14 (0.03) | EC1 [3]: 359 µmol/L and 359 (11) µmol/L

O=C(CCc1ccc(O)cc1)c1c(O)cc(O)cc1O[C@@H]1O[C@H](CO)[C@@H](O)[C@H](O)[C@H]1O [Phloridzine, phloridzine, reference compound]
TEAC (Trolox équivalent antioxidant capacity) [1]: 0,09 | capacité antioxydante [1]: très faible | TEAC [3]: 0.08 (0.00)

Cc1c(C)c2c(c(C)c1O)CCC(C)(C(=O)O)O2 (stereo not drawn) [Trolox]
TEAC (Trolox équivalent antioxidant capacity) [1]: 1,00 | EC1 [2]: 322 | TEAC [3]: 1.00 (0.02) | EC1 [3]: 411 µmol/L and 411 (10) µmol/L

O=C1O[C@H]([C@@H](O)CO)C(O)=C1O [Vitamine C, acide ascorbique]
TEAC (Trolox équivalent antioxidant capacity) [1]: 0,98 | EC1 [2]: 392 | TEAC [3]: 1.03 (0.02) | EC1 [3]: 400 (9) µmol/L | EC1 ([3]; listed as vitamine C): 400 µmol/L

acide 3-(4'-hydroxy-2'-glucosyl-4,5-dioxo-3,6-dihydro-2H-dibenzofuran-2-yl)-propionique [I-b-1]
TEAC (Trolox équivalent antioxidant capacity) [1]: 0,09 | capacité antioxydante [1]: faible capacité antioxydante | L* : luminosité [4, 9]: 99,6 | Teinte CIE [4, 9]: 3,5 | a* : axe vert-rouge [4, 9]: -4,6 | b* : axe bleu-jaune [4, 9]: 11,5 | L* : luminosité [4, 10]: 99,3 | Teinte CIE [4, 10]: 6,7 | a* : axe vert-rouge [4, 10]: -8,5 | b* : axe bleu-jaune [4, 10]: 22,8 | L* : luminosité [4, 11]: 98,7 | Teinte CIE [4, 11]: 11,1 | a* : axe vert-rouge [4, 11]: -13,6 | b* : axe bleu-jaune [4, 11]: 41,5 | L* : luminosité [4, 12]: 97,9 | Teinte CIE [4, 12]: 14,3 | a* : axe vert-rouge [4, 12]: -17,7 | b* : axe bleu-jaune [4, 12]: 67,1 | L* : luminosité [4, 13]: 96,5 | Teinte CIE [4, 13]: 10,4 | a* : axe vert-rouge [4, 13]: -17,8 | b* : axe bleu-jaune [4, 13]: 96,0 | L* : luminosité [4, 14]: 98,7 | Teinte CIE [4, 14]: 11,2 | a* : axe vert-rouge [4, 14]: -13,5 | b* : axe bleu-jaune [4, 14]: 40,7 | L* : luminosité [4, 15]: 98,5 | Teinte CIE [4, 15]: 11,0 | a* : axe vert-rouge [4, 15]: -13,4 | b* : axe bleu-jaune [4, 15]: 41,1 | L* : luminosité [4, 16]: 98,4 | Teinte CIE [4, 16]: 10,2 | a* : axe vert-rouge [4, 16]: -13,2 | b* : axe bleu-jaune [4, 16]: 42,3 | L* : luminosité [4, 17]: 97,5 | Teinte CIE [4, 17]: 5,9 | a* : axe vert-rouge [4, 17]: -11,4 | b* : axe bleu-jaune [4, 17]: 46,7 | L* : luminosité [4, 18]: 93,5 | Teinte CIE [4, 18]: -20,5 | a* : axe vert-rouge [4, 18]: -0,1 | b* : axe bleu-jaune [4, 18]: 57,7 | L* : luminosité [4, 19]: 88,1 | Teinte CIE [4, 19]: -63,5 | a* : axe vert-rouge [4, 19]: 16,3 | b* : axe bleu-jaune [4, 19]: 71,4 | L* : luminosité [4, 20]: 87,1 | Teinte CIE [4, 20]: -71,8 | a* : axe vert-rouge [4, 20]: 19,5 | b* : axe bleu-jaune [4, 20]: 72,2 | Teinte CIE ([4]; pH inférieur à 5-6 (yellow)): 10 | Teinte CIE ([4]; pH supérieurs (orange)): -50 | % Témoin ([5]; 20 µM): 101% | DO Moyenne ([5]; 20 µM): 0,489 | % Témoin ([5]; 100 µM): 104% | DO Moyenne ([5]; 100 µM): 0,504 | % Témoin ([5]; 200 µM): 96% | DO Moyenne ([5]; 200 µM): 0,467 | effet sur la viabilité cellulaire ([5]; 1000 µM): une légère diminution de la viabilité cellulaire | % Témoin ([5]; 1000 µM): 104% | DO Moyenne ([5]; 1000 µM): 0,504 | % Témoin ([5]; 2000 µM): 93% | DO Moyenne ([5]; 2000 µM): 0,448 | effet sur la viabilité cellulaire ([5]; at the tested concentrations (20-2000 µM)): n'a pas eu d'effet sur la viabilité cellulaire | effet sur la viabilité cellulaire ([5]; jusqu'à 200 µM): Aucun effet inhibiteur de référence n'a été noté | DO 420 nm (jaune) du milieu réactionnel dilué à 0,1 g/l [6]: 0,973 | coefficient d'extinction molaire ([7]; 420 nm à pH 3, estimated): 17400 mol⁻¹ cm⁻¹ | coefficient d'extinction molaire ε ([7]; pH 3): 17 400 DO.mol^-1.L^-2.cm^-1

O=C(O)CCc1cc(O)c(O)cc1-c1c(O)cc(O)cc1C1O[C@H](CO)[C@@H](O)[C@H](O)[C@H]1O (stereo partly drawn) [I-a-1, acide 3-(4,5,4',6'-tetrahydroxy-2'-glucosyl-biphenyl-2-yl)-propionique]
TEAC (Trolox équivalent antioxidant capacity) [1]: 0,78 | capacité antioxydante, fold over phloridzine ([1]; overall conclusion from DPPH and FRAP): 10 fois | capacité antioxydante [1]: capacité antioxydante importante | EC1 [3]: 477 (15) µmol/L

O=c1c(O)c(-c2ccc(O)c(O)c2)oc2cc(O)cc(O)c12 [quercétine]
logP (P coeff. de partage [n-octanol/eau]) [8]: positif

COc1cc(/C=C/C(=O)CC(=O)/C=C/c2ccc(O)c(OC)c2)ccc1O [curcumine]
logP (P coeff. de partage [n-octanol/eau]) [8]: positif
